Read-outs that look alike come from different tables or passages of the source.
Assays:
[1] = target: Dopamine D2S (Homo sapiens, UniProt P14416); format: binding; parameters: host or cells: CHO cells; conditions: 10 µM
[2] = target: T1, Histamine H1 (Homo sapiens, UniProt P35367); format: binding; conditions: 10 µM
T1 construct: host or cells: CHO-K1 cells

[3] = system: E. coli UTI89
[4] = format: physicochemical
Method: SI2-Supporting Information- Goller et al.
Experimental procedures for aqueous and LB medium solubility, hepatic microsome stability, PAMPA permeability, and plasma stability
Aqueous and LB Medium Solubility: Solubility analysis was performed using a direct UV kinetic solubility method in a 96-well format. All liquid dispense and transfer steps were performed with the Freedom Evo automated liquid handler (Tecan US). Solubility measurements were performed in buffer solution (PBS (pH 7.4) or LB medium), in duplicate. Samples were incubated at room temperature for a minimum of 18 hrs to achieve equilibrium, then filtered (filter plate, pION Inc, P/N 110322) to remove any precipitate formed. The concentration of the compounds was measured by UV absorbance (250-498 nm) using the Infinite M200 (Tecan US) and compared to the spectra of the precipitation-free reference solutions. Spectroscopically pure 1-Propanol (Sigma P/N 256404) was used as a cosolvent to suppress precipitation in the reference solutions.
The solubility of each compound was determined using µSOL Evolution Plus software v3.2 (pION Inc) and is expressed as the concentration (µg/mL) of a solute in a saturated solution. […]
Hepatic Microsome Stability: Metabolic stability was assessed in the presence of human liver microsomes (XenoTech, P/N H0630) and mouse liver microsomes (XenoTech, P/N M1000). […]

[5] = target: Glutamate, NMDA, Agonism (Rattus norvegicus, UniProt Q00959); test: Radioligand binding 232810; conditions: 10 µM
[6] = target: Glutamate, NMDA, Glycine (Rattus norvegicus, UniProt P35439); format: binding; parameters: Wistar Rat cerebral cortex; tissue Eurofins Panlabs 232910; host or cells: Wistar rat cerebral cortex; conditions: 10 µM
[7] = system: Glutamate, Kainate; test: Radioligand binding 232700; parameters: species or system rat; conditions: 10 µM
[8] = Mouse
[9] = target: T2, Opiate µ(OP3, MOP) (Homo sapiens, UniProt P35372); format: binding; conditions: 10 µM
T2 construct: host or cells: CHO-K1 cells

[10] = system: Imidazoline I2, Central; test: Radioligand binding 241000; parameters: species or system rat; conditions: 10 µM
[11] = target: T3, Estrogen ERα (Homo sapiens, UniProt P03372); format: binding; conditions: 10 µM
T3 construct: host or cells: insect Sf9 cells

[12] = target: Glucocorticoid (Homo sapiens, UniProt P04150); test: Radioligand binding 232030; parameters: host or cells: insect cells; conditions: 10 µM
[13] = system: Rolipram; test: Radioligand binding 270000; parameters: species or system rat; conditions: 10 µM
[14] = target: T4, Melatonin MT1 (Homo sapiens, UniProt P48039); format: binding; conditions: 10 µM
T4 construct: host or cells: CHO-K1 cells

[15] = system: E. coli strains 536 (K15), CFT073 (K2), DS17 (K5), UTI89 (K1); test: Visualization of capsule using Alcian blue staining; format: cell-based, Escherichia coli; conditions: 200 µM
[16] = target: Cannabinoid CB1 (Homo sapiens, UniProt P21554); format: binding; conditions: 10 µM
[17] = Mouse; remark: listed apart in the source
[18] = system: Phorbol Ester; test: Radioligand binding 264500; parameters: species or system mouse; conditions: 10 µM
[19] = Human
[20] = target: Thyroid Hormone (Rattus norvegicus, UniProt P18113); format: binding; conditions: 10 µM
[21] = target: T5, Dopamine D1 (Homo sapiens, UniProt P21728); format: binding; conditions: 10 µM
T5 construct: host or cells: CHO cells

[22] = target: T6, Endothelin ETA (Homo sapiens, UniProt P25101); format: binding; conditions: 10 µM
T6 construct: host or cells: CHO-K1 cells

[23] = target: T7, Adrenergic α1A (Rattus norvegicus, UniProt P43140); test: Radioligand binding 203100; conditions: 10 µM
T7 construct: Wistar Rat submaxillary gland; tissue Eurofins Panlabs (assay Cat #) 203100; host or cells: Wistar rat submaxillary gland

[24] = pre-treatment of bacteria without pretreatment of the mice

Cannabinoid CB1, sequence (P21554 whole entry): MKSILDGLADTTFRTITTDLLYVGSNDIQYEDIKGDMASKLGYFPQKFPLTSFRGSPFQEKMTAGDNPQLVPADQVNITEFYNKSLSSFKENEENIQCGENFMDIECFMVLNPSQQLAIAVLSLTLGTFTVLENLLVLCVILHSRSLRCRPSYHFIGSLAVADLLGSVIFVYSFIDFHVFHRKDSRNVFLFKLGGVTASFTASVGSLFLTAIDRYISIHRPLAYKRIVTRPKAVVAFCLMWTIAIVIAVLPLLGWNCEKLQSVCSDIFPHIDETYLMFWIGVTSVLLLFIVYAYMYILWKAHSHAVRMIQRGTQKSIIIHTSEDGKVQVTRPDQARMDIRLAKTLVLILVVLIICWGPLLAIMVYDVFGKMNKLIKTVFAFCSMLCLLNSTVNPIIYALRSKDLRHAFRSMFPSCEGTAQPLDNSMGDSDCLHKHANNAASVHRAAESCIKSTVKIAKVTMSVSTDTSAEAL
Glutamate, NMDA, Agonism, sequence (Q00959 23-1464, other chains not shown): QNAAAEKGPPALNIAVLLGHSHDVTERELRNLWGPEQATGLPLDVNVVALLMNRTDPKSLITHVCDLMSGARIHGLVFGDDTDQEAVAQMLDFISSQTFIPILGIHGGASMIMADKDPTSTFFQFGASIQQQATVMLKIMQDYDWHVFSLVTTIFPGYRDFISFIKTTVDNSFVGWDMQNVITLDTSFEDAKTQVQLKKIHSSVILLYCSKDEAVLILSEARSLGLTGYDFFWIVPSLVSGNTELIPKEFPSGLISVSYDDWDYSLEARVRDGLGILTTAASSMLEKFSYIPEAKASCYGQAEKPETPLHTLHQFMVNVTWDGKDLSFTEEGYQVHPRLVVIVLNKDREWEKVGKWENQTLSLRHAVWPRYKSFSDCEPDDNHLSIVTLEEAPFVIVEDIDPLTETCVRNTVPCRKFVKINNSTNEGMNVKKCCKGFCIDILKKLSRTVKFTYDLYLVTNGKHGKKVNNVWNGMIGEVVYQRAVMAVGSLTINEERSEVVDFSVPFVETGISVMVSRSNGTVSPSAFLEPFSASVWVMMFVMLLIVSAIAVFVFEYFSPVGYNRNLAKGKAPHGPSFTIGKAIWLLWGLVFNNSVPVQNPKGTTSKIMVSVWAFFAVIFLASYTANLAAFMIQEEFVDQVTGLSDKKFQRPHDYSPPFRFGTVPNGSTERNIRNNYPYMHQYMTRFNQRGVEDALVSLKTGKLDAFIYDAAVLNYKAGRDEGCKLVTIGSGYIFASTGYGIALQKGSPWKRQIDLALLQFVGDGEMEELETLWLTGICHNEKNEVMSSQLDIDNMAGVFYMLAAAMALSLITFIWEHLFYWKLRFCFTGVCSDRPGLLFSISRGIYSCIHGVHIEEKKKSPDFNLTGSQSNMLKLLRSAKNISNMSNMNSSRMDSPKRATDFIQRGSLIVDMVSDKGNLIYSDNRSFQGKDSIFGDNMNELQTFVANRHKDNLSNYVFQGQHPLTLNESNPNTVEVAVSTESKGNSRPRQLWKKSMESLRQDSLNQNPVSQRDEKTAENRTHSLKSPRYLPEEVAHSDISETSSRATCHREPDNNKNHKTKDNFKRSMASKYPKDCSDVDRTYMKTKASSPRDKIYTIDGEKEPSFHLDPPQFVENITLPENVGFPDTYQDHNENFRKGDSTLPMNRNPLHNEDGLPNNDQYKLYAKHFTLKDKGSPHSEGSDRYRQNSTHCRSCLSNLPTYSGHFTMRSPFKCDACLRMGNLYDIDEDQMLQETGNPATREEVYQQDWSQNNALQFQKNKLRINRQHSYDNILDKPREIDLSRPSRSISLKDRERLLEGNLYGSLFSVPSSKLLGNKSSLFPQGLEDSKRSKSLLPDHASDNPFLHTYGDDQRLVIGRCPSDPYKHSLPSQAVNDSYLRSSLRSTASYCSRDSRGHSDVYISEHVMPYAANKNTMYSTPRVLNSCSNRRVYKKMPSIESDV
T2 sequence (P35372 whole entry): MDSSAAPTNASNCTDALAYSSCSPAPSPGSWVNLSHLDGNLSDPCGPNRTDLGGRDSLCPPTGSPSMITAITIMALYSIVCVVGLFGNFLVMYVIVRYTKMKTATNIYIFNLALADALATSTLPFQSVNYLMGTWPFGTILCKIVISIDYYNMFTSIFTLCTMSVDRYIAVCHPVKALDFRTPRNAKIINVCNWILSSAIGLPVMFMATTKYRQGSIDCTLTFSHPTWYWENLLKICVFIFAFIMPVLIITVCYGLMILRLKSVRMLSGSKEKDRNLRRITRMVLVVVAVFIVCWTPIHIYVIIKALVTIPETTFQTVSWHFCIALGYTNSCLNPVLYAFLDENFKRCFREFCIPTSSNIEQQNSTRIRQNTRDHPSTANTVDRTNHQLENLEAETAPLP
T4 sequence (P48039 whole entry): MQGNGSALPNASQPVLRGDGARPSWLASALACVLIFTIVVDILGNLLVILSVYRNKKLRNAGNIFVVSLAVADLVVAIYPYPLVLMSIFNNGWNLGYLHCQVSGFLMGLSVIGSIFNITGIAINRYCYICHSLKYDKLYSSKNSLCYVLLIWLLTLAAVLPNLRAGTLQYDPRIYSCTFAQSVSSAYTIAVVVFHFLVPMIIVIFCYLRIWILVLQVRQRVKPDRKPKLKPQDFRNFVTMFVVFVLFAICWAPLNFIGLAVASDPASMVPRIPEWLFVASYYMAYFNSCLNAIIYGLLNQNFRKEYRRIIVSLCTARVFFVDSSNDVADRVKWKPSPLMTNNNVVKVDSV
Glucocorticoid, sequence (P04150 whole entry): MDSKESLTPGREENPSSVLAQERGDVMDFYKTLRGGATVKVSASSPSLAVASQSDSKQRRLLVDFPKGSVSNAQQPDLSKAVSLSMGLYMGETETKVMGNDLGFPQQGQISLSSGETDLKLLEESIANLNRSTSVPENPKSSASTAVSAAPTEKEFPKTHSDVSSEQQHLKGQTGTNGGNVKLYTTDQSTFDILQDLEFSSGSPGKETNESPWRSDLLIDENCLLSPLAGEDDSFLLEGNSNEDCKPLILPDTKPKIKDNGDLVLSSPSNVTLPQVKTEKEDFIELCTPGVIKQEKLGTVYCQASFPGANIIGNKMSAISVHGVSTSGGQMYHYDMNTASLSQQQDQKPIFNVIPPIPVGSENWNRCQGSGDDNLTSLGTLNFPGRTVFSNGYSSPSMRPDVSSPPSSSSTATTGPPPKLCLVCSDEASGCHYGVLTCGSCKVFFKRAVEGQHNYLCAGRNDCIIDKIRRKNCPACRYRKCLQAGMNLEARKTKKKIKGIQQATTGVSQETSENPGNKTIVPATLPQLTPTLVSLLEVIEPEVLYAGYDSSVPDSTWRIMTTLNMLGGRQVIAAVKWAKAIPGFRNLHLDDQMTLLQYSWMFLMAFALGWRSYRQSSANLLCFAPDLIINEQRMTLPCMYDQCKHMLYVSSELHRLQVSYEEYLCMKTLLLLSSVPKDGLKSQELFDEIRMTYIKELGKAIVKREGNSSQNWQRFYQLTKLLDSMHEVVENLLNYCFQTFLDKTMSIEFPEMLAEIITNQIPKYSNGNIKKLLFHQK
T5 sequence (P21728 whole entry): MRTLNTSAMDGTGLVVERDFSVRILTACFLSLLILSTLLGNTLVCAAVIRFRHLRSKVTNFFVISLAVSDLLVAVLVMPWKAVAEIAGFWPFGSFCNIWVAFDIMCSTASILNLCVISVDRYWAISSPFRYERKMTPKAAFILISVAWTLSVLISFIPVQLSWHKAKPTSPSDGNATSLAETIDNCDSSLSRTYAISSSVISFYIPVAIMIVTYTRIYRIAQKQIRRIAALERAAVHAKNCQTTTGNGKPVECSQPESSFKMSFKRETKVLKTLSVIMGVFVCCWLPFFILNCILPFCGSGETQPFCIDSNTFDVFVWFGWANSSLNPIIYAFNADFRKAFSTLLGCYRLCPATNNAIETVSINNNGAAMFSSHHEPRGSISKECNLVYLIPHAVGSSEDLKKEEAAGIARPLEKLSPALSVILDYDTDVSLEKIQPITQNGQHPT
T1 sequence (P35367 whole entry): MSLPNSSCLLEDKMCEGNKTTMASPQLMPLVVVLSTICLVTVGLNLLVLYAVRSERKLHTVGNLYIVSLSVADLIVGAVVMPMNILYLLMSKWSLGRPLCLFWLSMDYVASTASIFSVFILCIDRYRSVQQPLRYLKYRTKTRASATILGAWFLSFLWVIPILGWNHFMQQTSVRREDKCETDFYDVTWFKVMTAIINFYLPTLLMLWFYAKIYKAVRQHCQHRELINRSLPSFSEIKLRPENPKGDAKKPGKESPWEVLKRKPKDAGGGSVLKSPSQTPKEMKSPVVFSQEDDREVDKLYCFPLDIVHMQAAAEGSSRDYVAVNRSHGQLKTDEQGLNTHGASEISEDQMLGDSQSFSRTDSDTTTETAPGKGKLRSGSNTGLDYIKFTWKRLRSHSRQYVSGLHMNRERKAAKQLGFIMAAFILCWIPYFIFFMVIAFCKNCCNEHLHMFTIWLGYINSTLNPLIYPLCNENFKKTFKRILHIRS
Dopamine D2S, sequence (P14416 other isoform, or with tags, fused parts or gaps): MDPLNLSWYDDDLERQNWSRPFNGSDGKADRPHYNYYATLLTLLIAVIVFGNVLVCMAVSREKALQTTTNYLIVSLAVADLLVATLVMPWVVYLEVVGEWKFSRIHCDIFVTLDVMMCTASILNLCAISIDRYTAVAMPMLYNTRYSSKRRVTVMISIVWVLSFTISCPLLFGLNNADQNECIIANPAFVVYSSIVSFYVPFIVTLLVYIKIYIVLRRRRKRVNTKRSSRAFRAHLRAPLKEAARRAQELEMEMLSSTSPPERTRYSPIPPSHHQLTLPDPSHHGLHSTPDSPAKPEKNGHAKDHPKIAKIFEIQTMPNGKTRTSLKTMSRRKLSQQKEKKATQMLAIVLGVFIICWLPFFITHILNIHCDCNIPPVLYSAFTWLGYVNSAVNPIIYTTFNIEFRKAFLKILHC

Structure (SMILES): CCOc1ccc(-c2cc(NC(=O)c3c(F)cccc3F)c(C(=O)O)s2)cc1 [DU011]
- % Inh. [1]: -6%
- % Inh. [2]: -16%
- body weight [3, 24]: ongoing weight loss among surviving animals
- survival [3, 24]: 50%
- body weight ([3]; pretreatment of the bacteria and mice): recovery of pre-infection weights
- survival ([3]; pretreatment of the bacteria and mice, 48 hrs, 10^8 CFU UTI89 i.p.): 100%
- tolerability in mice ([3]; subcutaneous 100 µL of 1 mg/ml twice daily): without evident side effects
- body weight ([3]; subcutaneous DU011 and untreated UTI89): stabilization of weights at the end of the experiment
- survival ([3]; subcutaneous DU011 and untreated UTI89, 48 hrs): 80%
- Aqueous Solubility ([4]; 1× PBS): 92.6 µg/mL
- Aqueous Solubility ([4]; LB medium): 68 µg/mL
- % Inh. [5]: -8%
- % Inh. [6]: 6%
- % Inh. [7]: 3%
- Hepatic Microsome Stability, percent remaining at 1 hr [8]: 74.32%
- % Inh. [9]: 1%
- % Inh. [10]: -23%
- % Inh. [11]: 13%
- % Inh. [12]: 16%
- % Inh. [13]: 3%
- % Inh. [14]: 7%
- reduction in capsular material from CFT073 ([15]; CFT073 (K2 serotype)): slightly less than the other serotypes tested
- capsular material, alcian blue stained gel ([15]; strains 536, CFT073, DS17, UTI89): capsule was reduced in each strain
- % Inh. [16]: 20%
- Plasma Stability, percent remaining at 3 hrs [17]: 78.39%
- % Inh. [18]: 1%
- Plasma Stability, percent remaining at 3 hrs [19]: 95.31%
- % Inh. [20]: 20%
- % Inh. [21]: 4%
- % Inh. [22]: -4%
- % Inh. [23]: -3%

Reference: publication PMC4077706, “Lifting the Mask: Identification of New Small Molecule Inhibitors of Uropathogenic Escherichia coli Group 2 Capsule Biogenesis” (PLoS ONE, 2014)
